We go through 15 molecules from BindingDB's records for doi:10.7270/Q2NS0SCW (Burnham Center For Chemical Genomics, 2010).

Broadly, the IC50 is the point on the concentration scale where inhibition reaches its midpoint. A higher IC50 goes with weaker potency in that assay.

For one experiment, the target named is Alkaline phosphatase, placental type (Homo sapiens, UniProt P05187). The experiment in a line: PLAP enzyme inhibitors, dose response, selectivity assay for mouse IAP inhibitor project, biochemical, uHTS hits (AID 488879).
Alkaline phosphatase, placental type, sequence (P05187 whole entry, looked up): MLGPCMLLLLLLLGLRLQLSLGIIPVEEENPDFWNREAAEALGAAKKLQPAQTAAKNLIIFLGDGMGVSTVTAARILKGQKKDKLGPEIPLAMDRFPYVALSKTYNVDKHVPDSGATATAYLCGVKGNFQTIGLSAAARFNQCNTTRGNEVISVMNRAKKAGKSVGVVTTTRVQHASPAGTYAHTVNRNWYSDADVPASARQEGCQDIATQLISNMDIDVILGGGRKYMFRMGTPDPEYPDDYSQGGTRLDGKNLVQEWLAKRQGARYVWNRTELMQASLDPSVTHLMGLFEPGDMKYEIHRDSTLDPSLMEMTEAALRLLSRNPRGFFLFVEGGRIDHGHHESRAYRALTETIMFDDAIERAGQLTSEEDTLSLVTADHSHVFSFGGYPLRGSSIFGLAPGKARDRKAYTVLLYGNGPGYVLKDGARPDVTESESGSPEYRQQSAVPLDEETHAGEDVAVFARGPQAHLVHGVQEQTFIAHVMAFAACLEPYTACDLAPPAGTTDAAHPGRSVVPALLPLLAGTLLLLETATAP
For the molecule `Cc1ccc(Cl)c2c1NC(=O)/C2=C1/NC(=S)NC1=O`, the IC50 is greater than 100 µM. Molecule `Nc1nnc(CC(=O)N/N=C/C2C=C([N+](=O)[O-])C=C(Br)C2=O)s1` (stereo not given) [2-(5-azanyl-1,3,4-thiadiazol-2-yl)-N'-[(E)-(5-bromanyl-3-nitro-6-oxidanylidene-cyclohexa-2,4-dien-1-ylidene)methyl]ethanehydrazide] returned an IC50 greater than 100 µM.

For `NS(=O)(=O)c1cc(C(=O)NNC2=c3ccccc3=NC2=O)ccc1Cl` [2-chloro-5-[[(2-oxoindol-3-yl)amino]carbamoyl]benzenesulfonamide], the IC50 is greater than 100 µM. On the same count and under the same terms, the same measure for `COc1cc(C=Nn2c(O)csc2=S)ccc1O` [3-[[(E)-(3-methoxy-4-oxidanylidene-cyclohexa-2,5-dien-1-ylidene)methyl]amino]-2-sulfanylidene-1,3-thiazolidin-4-one]: greater than 100 µM; for `Oc1ccc(C=Nn2c(O)csc2=S)c(O)c1O` [3-[[(E)-[2,3-bis(oxidanyl)-4-oxidanylidene-cyclohexa-2,5-dien-1-ylidene]methyl]amino]-2-sulfanylidene-1,3-thiazolidin-4-one]: greater than 100 µM; for `CC1NON=C1C(=O)NN=CC1=CC(=O)C(=O)C=C1` (stereo not given) [4-Methyl-furazan-3-carboxylic acid (3,4-dihydroxy-benzylidene)-hydrazide]: 18 µM.

The molecule `Cc1ccc(/C=C2\SC(=S)N(/N=C/C3C=C([N+](=O)[O-])C=CC3=O)C2=O)o1` (stereo not given) [(5Z)-5-[(5-methylfuran-2-yl)methylidene]-3-[[(E)-(3-nitro-6-oxocyclohexa-2,4-dien-1-ylidene)methyl]amino]-2-sulfanylidene-1,3-thiazolidin-4-one] displayed a half-inhibitory concentration (IC50) greater than 100 µM. As to `C#CCOCCOCCOCCNc1nc(N2CCN(C(=O)CCCCCCCCCCNC(=O)[C@H]([C@@H](C)CC)n3cc(CCCCN=C(N)N)nn3)CC2)nc(N2CCN(C(=O)CCCCCCCCCCNC(=O)[C@@H]([C@H](C)O)n3cc(C)nn3)CC2)n1` [GT-RI], the half-inhibitory concentration (IC50) was greater than 100 µM. The same measure, in the same setting: the same measure for `O=C1C=CC(C=NNC(=S)Nc2ccccc2[N+](=O)[O-])C=C1O` (stereo not given) [MLS000417596]: greater than 100 µM. Take `C#CCOCCOCCOCCNc1nc(N2CCN(C(=O)CCCCCCCCCCNC(=O)[C@@H](CCSC)n3cc(CCO)nn3)CC2)nc(N2CCN(C(=O)CCCCCCCCCCNC(=O)[C@H]([C@@H](C)CC)n3cc(CCCCCN)nn3)CC2)n1` [MLS002153719]: the concentration for half-maximal inhibition (IC50) was greater than 100 µM. The same measure, in the same setting: the same measure for `O=c1cc(O)cc2oc(-c3ccc(O)c(O)c3)c(O[C@@H]3O[C@H](CO)[C@@H](O)[C@H](O)[C@H]3O)c(O)c1-2` [Quercetin 3-O-beta-D-glucoside]: greater than 100 µM; for `NS(=O)(=O)c1ccc(N=Nc2c(=O)[nH]n3c(=O)c4c([nH]c23)CCCC4)cc1` [SMR000231775]: 21.8 µM. The same measure, in the same setting: as for `O=C(Nn1c(O)csc1=S)C(=O)Nn1c(O)csc1=S` [SMR000349781], the figure is greater than 100 µM; as for `COc1cc(C=CC(=O)CC(=O)C=Cc2ccc(O)cc2)ccc1O` [demethoxycurcumin], greater than 100 µM.

Biological target in the next experiment: not listed separately
The description is as above.
The molecule `O=C1Nc2ccccc2/C1=C1/SC(=S)N(NC(=O)c2ccccc2)C1=O` [N-[(5Z)-4-oxo-5-(2-oxo-1H-indol-3-ylidene)-2-sulfanylidene-3-thiazolidinyl]benzamide] had a half-inhibitory concentration (IC50) of 5.31 µM.
